Data published in patent publication US20160264568A1, “SUBSTITUTED TRIAZOLOPYRIDINES HAVING ACTIVITY AS MPS-1 INHIBITORS” (BAYER PHARMA AKTIENGESELLSCHAFT, priority 2013, published 2016).
Where two headings read alike, the source gives them in different places.

How the values were obtained:
[1] = system: HeLa human cervical tumor cells; assay: HeLa cell proliferation assay (crystal violet); format: cell-based; conditions: 96 h, 4 days incubation, crystal violet staining, read-out: Inhibition of cell proliferation, cell Line: HeLa IC50
Description: Cultivated tumor cells (MCF7, hormone dependent human mammary carcinoma cells, ATCC HTB22; NCI-H460, human non-small cell lung carcinoma cells, ATCC HTB-177; DU 145, hormone-independent human prostate carcinoma cells, ATCC HTB-81; HeLa-MaTu, human cervical carcinoma cells, EPO-GmbH, Berlin; HeLa-MaTu-ADR, multidrug-resistant human cervical carcinoma cells, EPO-GmbH, Berlin; HeLa human cervical tumor cells, ATCC CCL-2; B16F10 mouse melanoma cells, ATCC CRL-6475) were plated at a density of 5000 cells/well (MCF7, DU145, HeLa-MaTu-ADR), 3000 cells/well (NCI-H460, HeLa-MaTu, HeLa), or 1000 cells/well (B16F10) in a 96-well multititer plate in 200 μl of their respective growth medium supplemented 10% fetal calf serum. […] Cell proliferation was determined by staining the cells with crystal violet: the cells were fixed by adding 20 μl/measuring point of an 11% glutaric aldehyde solution for 15 minutes at room temperature. […] The extinction of the stained cells was determined by photometry at a wavelength of 595 nm. The change of cell number, in percent, was calculated by normalization of the measured values to the extinction values of the zero-point plate (=0%) and the extinction of the untreated (0 μm) cells (=100%). The […] values were determined by means of a 4 parameter fit using the company's own software. […]

human kinase Mps-1 = biological target: T1, human kinase Mps-1 (Homo sapiens, UniProt P33981); assay: Mps-1 kinase assay (TR-FRET); format: biochemical
T1 construct: N-terminally GST-tagged human full length recombinant Mps-1 kinase; GST (N); purchased Invitrogen, Karslruhe, Germany PV4071
T1 sequence (P33981 1-857): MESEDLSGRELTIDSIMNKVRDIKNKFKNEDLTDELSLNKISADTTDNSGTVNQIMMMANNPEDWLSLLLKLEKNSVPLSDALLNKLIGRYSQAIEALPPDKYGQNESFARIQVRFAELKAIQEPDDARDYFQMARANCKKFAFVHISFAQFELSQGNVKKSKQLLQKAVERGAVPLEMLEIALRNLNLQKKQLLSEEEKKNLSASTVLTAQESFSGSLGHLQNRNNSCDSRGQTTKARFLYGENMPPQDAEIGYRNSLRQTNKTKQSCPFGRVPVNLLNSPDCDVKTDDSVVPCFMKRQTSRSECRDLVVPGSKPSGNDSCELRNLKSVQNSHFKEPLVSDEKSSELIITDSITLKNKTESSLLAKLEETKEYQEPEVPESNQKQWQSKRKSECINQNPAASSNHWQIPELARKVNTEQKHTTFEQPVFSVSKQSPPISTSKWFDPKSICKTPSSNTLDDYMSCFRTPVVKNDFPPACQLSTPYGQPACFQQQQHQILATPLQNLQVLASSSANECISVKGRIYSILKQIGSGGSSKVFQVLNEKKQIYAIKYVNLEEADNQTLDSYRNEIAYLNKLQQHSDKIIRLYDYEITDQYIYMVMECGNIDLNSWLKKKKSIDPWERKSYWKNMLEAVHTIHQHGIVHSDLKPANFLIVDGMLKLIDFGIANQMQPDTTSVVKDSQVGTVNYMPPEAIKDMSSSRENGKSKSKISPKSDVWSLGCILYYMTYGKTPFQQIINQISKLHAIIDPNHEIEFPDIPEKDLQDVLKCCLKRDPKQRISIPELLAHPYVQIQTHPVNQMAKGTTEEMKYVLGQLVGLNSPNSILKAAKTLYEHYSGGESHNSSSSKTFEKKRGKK
Description: The human kinase Mps-1 phosphorylates a biotinylated substrate peptide. Detection of the phosphorylated product is achieved by time-resolved fluorescence resonance energy transfer (TR-FRET) from Europium-labelled anti-phospho-Serine/Threonine antibody as donor to streptavidin labelled with cross-linked allophycocyanin (SA-XLent) as acceptor. Compounds are tested for their inhibition of the kinase activity.
N-terminally GST-tagged human full length recombinant Mps-1 kinase (purchased from Invitrogen, Karslruhe, Germany, cat. no PV4071) was used. […]
The resulting mixture was incubated 1 h at 22° C. to allow the binding of the phosphorylated peptide to the anti-phospho(Ser/Thr)-Europium-antibody. Subsequently the amount of phosphorylated substrate was evaluated by measurement of the resonance energy transfer from the Europium-labelled anti-phospho(Ser/Thr) antibody to the Streptavidin-XLent. Therefore, the fluorescence emissions at 620 nm and 665 nm after excitation at 350 nm was measured in a Viewlux TR-FRET reader (PerkinElmer LAS, Rodgau-Jugesheinn, Germany). The “blank-corrected normalized ratio” (a Viewlux specific readout, similar to the traditional ratio of the emissions at 665 nm and at 622 nm, in which blank and Eu-donor crosstalk are subtracted from the 665 nm signal before the ratio is calculated) was taken as the measure for the amount of phosphorylated substrate. […]

[2] = Metabolic stability in vitro, rat liver microsomes; format: in vitro ADME; conditions: maximal oral bioavailability calculated from microsomal half-life, 1 μM compound
Description: (§1) The metabolic stability of test compounds in vitro was determined by incubating them at 1 μM with a suspension of liver microsomes in 100 mM phosphate buffer, pH7.4 (NaH2PO4xH2O+Na2HPO4x2H2O) at a protein concentration of 0.5 mg/mL and at 37° C. The reaction was activated by adding a co-factor mix containing 1.2 mg NADP, 3 IU glucose-6-phosphate dehydrogenase, 14.6 mg glucose-6-phosphate and 4.9 mg MgCl2 in phosphate buffer, pH 7.4. Organic solvent in the incubations was limited to <0.2% dimethylsulfoxide (DMSO) and <1% methanol. During incubation, the microsomal suspensions were continuously shaken and aliquots were taken at 2, 8, 16, 30, 45 and 60 min, to which equal volumes of cold methanol were immediately added. Samples were frozen at −20° C. over night, subsequently centrifuged for 15 minutes at 3000 rpm and the supernatant was analyzed with an Agilent 1200 HPLC-system with LCMS/MS detection.
(§2) The half-life of a test compound was determined from the concentration-time plot. From the half-life the intrinsic clearances were calculated. Together with the additional parameters liver blood flow, specific liver weight and microsomal protein content the hepatic in vivo blood clearance (CL) and the maximal oral bioavailability (Fmax) were calculated for the different species. […]

[3] = Metabolic stability in vitro, human liver microsomes; format: in vitro ADME; conditions: maximal oral bioavailability calculated from microsomal half-life, 1 μM compound
Description: as §1, §2

[4] = Metabolic stability in vitro, dog liver microsomes; format: in vitro ADME; conditions: maximal oral bioavailability calculated from microsomal half-life, 1 μM compound
Description: as §1, §2

IC50 [1]: < 400 nM
IC50 (human kinase Mps-1; 10 μM ATP, read-out: Mps-1 Inhibition, IC50 (Assay with 10 μM ATP)): < 1 nM
IC50 (human kinase Mps-1; 2 mM ATP, read-out: Mps-1 Inhibition, IC50 (Assay with 2 mM ATP)): 1.6 nM
Rat liver microsomes; Fmax [%] [2]: 96%
Human liver microsomes; Fmax [%] [3]: 83%
Dog liver microsomes; Fmax [%] [4]: 65%
Structure (SMILES): COc1cc2c(cc1Nc1nc3ccc(-c4ccc(NC(=O)[C@H](C)c5ccc(F)cc5)cc4)cn3n1)CCS2(=O)=O [Example01.01, (2R)-2-(4-fluorophenyl)-N-(4-{2-[(6-methoxy-1,1-dioxido-2,3-dihydro-1-benzothiophen-5-yl)amino][1,2,4]triazolo[1,5-a]pyridin-6-yl}phenyl)propanamide]
